Several values for one entry are separate records, joined by “and”; a condition that tells them apart may be missing. Equal entries are not always repeated. Structures can show the parent of a compound that is named as a salt.

The target in this assay is T1, M17 leucyl aminopeptidase (Plasmodium falciparum (isolate 3D7), UniProt Q8IL11).
T1 sequence (Q8IL11 whole entry): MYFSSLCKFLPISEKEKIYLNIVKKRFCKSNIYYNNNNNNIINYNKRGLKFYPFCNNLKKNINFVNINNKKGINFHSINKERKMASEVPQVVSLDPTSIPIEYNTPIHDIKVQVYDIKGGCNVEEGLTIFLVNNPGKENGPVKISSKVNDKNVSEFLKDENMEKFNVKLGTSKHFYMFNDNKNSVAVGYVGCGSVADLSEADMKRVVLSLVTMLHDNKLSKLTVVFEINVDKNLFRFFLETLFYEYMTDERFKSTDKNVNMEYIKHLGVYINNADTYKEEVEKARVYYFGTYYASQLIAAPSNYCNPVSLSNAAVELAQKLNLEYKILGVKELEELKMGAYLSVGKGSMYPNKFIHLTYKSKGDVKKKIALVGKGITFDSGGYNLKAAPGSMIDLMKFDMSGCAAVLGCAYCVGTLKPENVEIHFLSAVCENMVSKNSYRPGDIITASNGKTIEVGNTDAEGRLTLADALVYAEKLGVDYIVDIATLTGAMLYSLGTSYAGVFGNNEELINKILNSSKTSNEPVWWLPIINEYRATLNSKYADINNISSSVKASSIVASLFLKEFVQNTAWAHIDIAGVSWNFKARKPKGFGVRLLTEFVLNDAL
Briefly: P. falciparum M17LAP inhibitors, primary screen, biochemical, fluorogenic H-Leu-NHMec substrate, 1536-well (AID 1619).
The compound `COc1cc(CN=Nc2ccc(Cl)c(C(=O)O)c2)ccc1OC(=O)c1cccs1` registered an IC50 of 55.5 µM.
`C=CCOc1c(OC)cc(CN=Nc2cccc(C(=O)O)c2)c(Br)c1Br` showed an IC50 of 1 µM.
Turning to `COc1ccc2sc(-n3c(O)c4c(c3O)CC(C)=CC4)nc2c1`, the concentration for half-maximal inhibition (IC50) was found to be 35 µM.
The figure for `N#CC1C(=N)Oc2[nH]nc(-c3ccccc3)c2C1c1ccsc1` (stereo unspecified) is 64.5 µM; for `C=C(c1ccc(OC)cc1)c1sc(=S)n(CCC(=O)O)c1O` it is 30.1 µM and 27.4 µM.
The result for `Cc1[nH][nH]c(=O)c1CCC(=O)NN=Cc1ccccc1[N+](=O)[O-]` reads 3.14 µM.
The result for `CC(C)(C)c1ccc(CN=Nc2ccc(C(=O)O)cc2)cc1` reads 13.3 µM; that for `Cc1[nH][nH]c(=O)c1CCC(=O)NN=CC=Cc1ccccc1`, 51.4 µM.
`CC(=NNC(=O)CCc1c(C)[nH][nH]c1=O)c1ccc([N+](=O)[O-])cc1`: the IC50 worked out at 80.6 µM.
The figure for `O=C(Cc1cc(=O)[nH][nH]1)NN=Cc1cccc(Cl)c1Cl` is 103 µM.
The figure for `Cc1[nH][nH]c(=O)c1CCC(=O)NN=Cc1ccc(Cl)cc1` is 52.6 µM.
The figure for `C=c1cc2[nH]c(=O)c(=Cc3cccn3CCCOc3ccc(OC)cc3)c(=N)n2o1` is 10.9 µM; for `Cc1[nH][nH]c(=O)c1CCC(=O)NN=Cc1ccco1` it is 69.2 µM; for `Cc1[nH][nH]c(=O)c1CCC(=O)NN=Cc1ccc(Cl)c(Cl)c1` it is 15 µM.
Compound `CCOc1ccccc1-n1c(O)cc(Sc2nnc(-c3ccccc3)[nH]2)c1O` [1-(2-ethoxyphenyl)-3-[(5-phenyl-4H-1,2,4-triazol-3-yl)thio]-2,5-pyrrolidinedione] had a concentration for half-maximal inhibition (IC50) of 8.97 µM. Compared with the last compound, the IC50 is about 1.7-fold lower.
`Cc1ccc(Nc2nnc(SCC(=O)C(C#N)c3nc4ccccc4[nH]3)s2)c(C)c1` (stereo unspecified) [2-(1,3-dihydrobenzimidazol-2-ylidene)-4-[[5-(2,4-dimethylanilino)-1,3,4-thiadiazol-2-yl]thio]-3-oxobutanenitrile] displayed an IC50 of 6.03 µM.
`CC(C=NNC(=O)Cc1c(C)[nH][nH]c1=O)=Cc1ccccc1` [2-(3-methyl-5-oxidanylidene-1,4-dihydropyrazol-4-yl)-N-[[(E)-2-methyl-3-phenyl-prop-2-enylidene]amino]ethanamide] displayed a 50% inhibitory concentration (IC50) of 52.8 µM.
The figure for `CN1C(=O)/C(=C/c2ccc(-c3ccccc3[N+](=O)[O-])o2)S/C1=N/c1ccc(Cl)c(C(=O)O)c1` [2-Chloro-5-[3-methyl-5-[1-[5-(2-nitro-phenyl)-furan-2-yl]-meth-(Z)-ylidene]-4-oxo-thiazolidin-(2Z)-ylideneamino]-benzoic acid] is 6.24 µM.
`COc1ccc(NC(=O)CSc2cc(O)n(-c3ccc4c(c3)OCCO4)c2O)cc1` [2-[1-(2,3-dihydro-1,4-benzodioxin-6-yl)-2,5-bis(oxidanylidene)pyrrolidin-3-yl]sulfanyl-N-(4-methoxyphenyl)ethanamide] yielded a concentration for half-maximal inhibition (IC50) of 16.1 µM.
Compound `COc1ccc(CN=Nc2nc(O)c(CC(=O)O)s2)cc1OCc1ccc(Cl)cc1` [2-[2-[2-[[3-[(4-chlorophenyl)methoxy]-4-methoxy-phenyl]methylidene]hydrazinyl]-4-oxidanylidene-1,3-thiazol-5-yl]ethanoic acid] had an IC50 of 20.3 µM.
`O=NCc1cn(CC(=O)N2CCOCC2)c2ccccc12` [2-[3-(hydroxyiminomethyl)indol-1-yl]-1-morpholin-4-ylethanone] showed an IC50 of 78.9 µM.
The figure for `Cc1ccc(/N=C2/S/C(=C\c3cn(CC(=O)O)c4ccccc34)C(=O)N2C)cc1` [2-[3-[(Z)-[3-methyl-2-(4-methylphenyl)imino-4-oxo-5-thiazolidinylidene]methyl]-1-indolyl]acetic acid] is 11.4 µM.
`C=CCN1C(=O)/C(=C/c2ccc(OCC(=O)O)cc2)SC1=Nc1nccs1` [2-[4-[(Z)-[4-oxidanylidene-3-prop-2-enyl-2-(1,3-thiazol-2-ylimino)-1,3-thiazolidin-5-ylidene]methyl]phenoxy]ethanoic acid] showed an IC50 of 18.9 µM.
As for `O=C(CSc1n[nH]c(=O)[nH]c1=O)NN=Cc1ccccc1O` [2-[(3,5-dioxo-2,3,4,5-tetrahydro-1,2,4-triazin-6-yl)thio]-N'-(2-hydroxybenzylidene)acetohydrazide], the IC50 amounted to 129 µM.
The result for `COc1cc(CN=Nc2ccc(Cl)c(C(=O)O)c2)ccc1OC(=O)c1ccco1` [2-chloro-5-[2-[[4-[2-furanyl(oxo)methoxy]-3-methoxyphenyl]methylidene]hydrazinyl]benzoic acid] reads 48.8 µM; that for `CCOc1ccc(-n2c(O)cc(SCCN)c2O)cc1` [3-(2-Amino-ethylsulfanyl)-1-(4-ethoxy-phenyl)-pyrrolidine-2,5-dione], 23.6 µM; that for `CCCOc1ccc(-n2c(O)cc(SCCN)c2O)cc1` [3-(2-aminoethylthio)-1-(4-propoxyphenyl)pyrrolidine-2,5-dione;hydrochloride], 12 µM.
The result for `COc1ccccc1C=CC=NNC(=O)CCc1c(C)[nH][nH]c1=O` [3-(3-Methyl-5-oxo-4,5-dihydro-1H-pyrazol-4-yl)-propionic acid [(E)-3-(2-methoxy-phenyl)-prop-2-en-(E)-ylidene]-hydrazide] reads 57.2 µM.
In turn, `CC(=NNC(=O)CCc1c(C)[nH][nH]c1=O)c1ccccc1` [3-(3-methyl-5-oxidanylidene-1,4-dihydropyrazol-4-yl)-N-(1-phenylethylideneamino)propanamide] gave an IC50 of 36.6 µM.
Take `C=c1[nH]n(CCC#N)c(=O)c1=Cc1ccc(N(C)C)cc1` [3-[(4E)-4-[[4-(dimethylamino)phenyl]methylidene]-3-methyl-5-oxo-1-pyrazolyl]propanenitrile]: the IC50 stood at 120 µM.
As to `O=C1N=c2ccccc2=C1NNc1ccc(C(=O)O)cc1` [4-[2-(2-oxidanylideneindol-3-yl)hydrazinyl]benzoic acid], the IC50 is 84.3 µM. This IC50 and that of the compound before are within 1.5-fold of each other.
The result for `COc1ccc(CN=Nc2ccc(C(=O)O)cc2)cc1Br` [4-[2-[(3-bromo-4-methoxyphenyl)methylidene]hydrazinyl]benzoic acid] reads 23.4 µM; that for `Cc1noc(NS(=O)(=O)c2ccc(N=CCC(=O)c3ccc4c(c3)OCO4)cc2)c1C` [4-[[(Z)-3-(1,3-benzodioxol-5-yl)-3-oxoprop-1-enyl]amino]-N-(3,4-dimethyl-5-isoxazolyl)benzenesulfonamide], 13.9 µM; that for `Cc1cc(CN=Nc2ccc([N+](=O)[O-])cn2)c(C)n1-c1ccc(C(=O)O)cc1` [4-{2,5-dimethyl-3-[2-(5-nitro-2-pyridinyl)carbonohydrazonoyl]-1H-pyrrol-1-yl}benzoic acid], 12.7 µM.
Compound `O=C1CCCC2=Nc3[nH]c(=S)[nH]c(=O)c3C(c3ccc(Br)cc3)C12` (stereo unspecified) [5-(4-bromophenyl)-2-thioxo-2,3,5,8,9,10-hexahydropyrimido[4,5-b]quinoline-4,6(1H,7H)-dione] gave an IC50 of 16.7 µM. This IC50 and that of the compound before are within 1.5-fold of each other.
The figure for `O=NCc1ccc(OCc2ccccc2)c(C(=O)O)c1` [5-(hydroxyiminomethyl)-2-phenylmethoxybenzoic acid] is 16.4 µM; for `N#CC1C(=N)Oc2nc(-c3ccccc3)[nH]c2C1c1cccnc1` (stereo unspecified) [5-amino-2-phenyl-7-pyridin-3-yl-3,7-dihydropyrano[2,3-d]imidazole-6-carbonitrile] it is 66.6 µM; for `Cc1ccc(SCc2cc(=O)[nH][nH]2)cc1` [5-p-Tolylsulfanylmethyl-2,4-dihydro-pyrazol-3-one] it is 1.77 µM.
The figure for `N#CC1C(=N)Oc2[nH]nc(-c3ccc(F)cc3)c2C1c1ccncc1` (stereo unspecified) [6-amino-3-(4-fluorophenyl)-4-pyridin-4-yl-2,4-dihydropyrano[2,3-c]pyrazole-5-carbonitrile] is 94.3 µM; for `Cc1ccc(-c2n[nH]c3c2C(c2cccnc2)C(C#N)C(=N)O3)cc1` (stereo unspecified) [6-amino-3-(4-methylphenyl)-4-pyridin-3-yl-1,4-dihydropyrano[2,3-c]pyrazole-5-carbonitrile] it is 25.8 µM.
The figure for `Cc1ccc(SCc2n[nH]c3c2C2(CCSCC2)C(C#N)C(=N)O3)cc1` (stereo unspecified) [6-amino-3-[(4-methylphenyl)sulfanylmethyl]spiro[2H-pyrano[2,3-c]pyrazole-4,4'-thiane]-5-carbonitrile] is 91 µM; for `CCOc1ccccc1C1c2c(-c3ccccc3)noc2N=C(N)C1C#N` (stereo unspecified) [6-amino-4-(2-ethoxyphenyl)-3-phenyl-2,4-dihydroisoxazolo[5,4-b]pyridine-5-carbonitrile] it is 52.7 µM; for `C/C(=C\c1ccco1)C1c2c(-c3ccccc3)n[nH]c2OC(=N)C1C#N` (stereo unspecified) [6-amino-4-[(E)-1-(furan-2-yl)prop-1-en-2-yl]-3-phenyl-2,4-dihydropyrano[2,3-c]pyrazole-5-carbonitrile] it is 83.7 µM.
Compound `Cc1ccc(-c2n[nH]c3c2C(C)C(C#N)C(=N)O3)cc1` (stereo unspecified) [6-amino-4-methyl-3-(4-methylphenyl)-2,4-dihydropyrano[2,3-c]pyrazole-5-carbonitrile] showed an IC50 of 16.3 µM.
In turn, `CCCc1[nH]nc2c1C(CCc1ccccc1)C(C#N)C(=N)O2` (stereo unspecified) [6-azanyl-4-(2-phenylethyl)-3-propyl-2,4-dihydropyrano[2,3-c]pyrazole-5-carbonitrile] yielded a half-inhibitory concentration (IC50) of 55.7 µM.
The figure for `CCOC(=O)C1C(=O)C(=Cc2ccc(OCC(=O)O)c(OCC)c2)SC1=Nc1ccc(C)cc1` (stereo unspecified) [(2-ethoxy-4-{[4-(ethoxycarbonyl)-5-[(4-methylphenyl)amino]-3-oxo-2(3H)-thienylidene]methyl}phenoxy)acetic acid] is 15.6 µM.

(Values after BindingDB's records for doi:10.7270/Q27W69N8 (Srmlsc, 2009).)
